Data: ChEMBL document CHEMBL5385929, “Tabersonine Enhances Olaparib Sensitivity through FHL1-Mediated Epithelial-Mesenchymal Transition in an Ovarian Tumor” (J Nat Prod, 2024)
Calls of active or inactive are those of the source. The calls are words filed in the database; no cut-off is given here.

How the values were obtained:
[1] = tested on: SK-OV-3; experiment: Potentiation of olaparib sensitivity in human SK-OV-3 cells assessed as inhibition of cell viability at 10 uM measured after 5 days in presence of olaparib by CCK8 assay; assay type: functional, cell-based; conditions: time 5.0 day
[2] = tested on: A2780; experiment: Potentiation of olaparib sensitivity in human A2780 cells assessed as inhibition of colony formation at 10 uM incubated for 48 hrs in presence of olaparib followed by drug wash-out and incubated in fresh medium for 2 weeks by crystal violet staining based analysis; assay type: functional, cell-based
[3] = Toxicity in BALB/c mouse xenografted with human A2780 cells assessed as effect on body weight at 5 to 15 mg/kg, ip administered every other day for 2 weeks; assay type: organism-based; conditions: in vivo, 336 h, dose 5-15 mg/kg
[4] = Toxicity in BALB/c mouse xenografted with human A2780 cells assessed as animal's death at 30 mg/kg, ip administered every other day and measured on day 6; assay type: organism-based; conditions: in vivo, 144 h, time 6 day
[5] = tested on: A2780; experiment: Antitumor activity against human A2780 cells xenografted in BALB/c mouse assessed as decrease in tumor weight at 5 to 15 mg/kg, ip administered every other day for 2 weeks; assay type: functional, organism-based; conditions: dose 5-15 mg/kg
[6] = Toxicity in BALB/c mouse xenografted with human A2780 cells assessed as effect on body weight at 15 mg/kg, ip co-administered with olaparib for 2 weeks; assay type: organism-based; conditions: in vivo, 336 h
[7] = tested on: A2780; experiment: Downregulation of EMT signalling in human A2780 cells assessed as downregulation of N-cadherin protein expression at 10 uM by western blot analysis; assay type: functional, cell-based
[8] = tested on: A2780; experiment: Downregulation of EMT signalling in human A2780 cells assessed as downregulation of vimentin protein expression at 10 uM by western blot analysis; assay type: functional, cell-based
[9] = tested on: SK-OV-3; experiment: Downregulation of EMT signalling in human SK-OV-3 cells assessed as upregulation of E-cadherin protein expression at 10 uM by western blot analysis; assay type: functional, cell-based
[10] = tested on: SK-OV-3; experiment: Downregulation of EMT signalling in human SK-OV-3 cells assessed as downregulation of N-cadherin protein expression at 10 uM by western blot analysis; assay type: functional, cell-based
[11] = tested on: A2780; experiment: Potentiation of olaparib sensitivity in human A2780 cells assessed as downregulation of EMT signaling by measuring downregulation of N-cadherin protein expression at 10 uM in presence of olaparib by western blot analysis; assay type: functional, cell-based
[12] = tested on: SK-OV-3; experiment: Potentiation of olaparib sensitivity in human SK-OV-3 cells assessed as downregulation of EMT signaling by measuring downregulation of vimentin protein expression at 10 uM in presence of olaparib by western blot analysis; assay type: functional, cell-based
[13] = tested on: A2780; experiment: Potentiation of olaparib sensitivity in human A2780 cells assessed as inhibition of cell invasion at 10 uM measured after 48 hrs in presence of olaparib by Transwell assay; assay type: functional, cell-based
[14] = tested on: SK-OV-3; experiment: Potentiation of olaparib sensitivity in human SK-OV-3 cells assessed as inhibition of cell invasion at 10 uM measured after 48 hrs in presence of olaparib by Transwell assay; assay type: functional, cell-based
[15] = tested on: SK-OV-3; experiment: Inhibition of cell migration in human SK-OV-3 cells at 10 uM measured after 24 to 48 hrs by wound healing assay; assay type: functional, cell-based; conditions: time 24-48 hrs
[16] = tested on: SK-OV-3; experiment: Upregulation of FHL1 protein expression in human SK-OV-3 cells by western blot analysis; assay type: functional, cell-based; conditions: dose 5-20 µM
[17] = tested on: A2780; experiment: Downregulation of EMT signalling in human A2780 cells transfected with shFHL1-2 RNA assessed as E-cadherin protein expression at 10 uM by western blot analysis; assay type: functional, cell-based
[18] = tested on: A2780; experiment: Downregulation of EMT signalling in human A2780 cells transfected with shFHL1-2 RNA assessed as N-cadherin protein expression at 10 uM by western blot analysis; assay type: functional, cell-based
[19] = tested on: SK-OV-3; experiment: Downregulation of EMT signalling in human SK-OV-3 cells transfected with shFHL1-1 RNA assessed as E-cadherin protein expression at 10 uM by western blot analysis; assay type: functional, cell-based
[20] = tested on: SK-OV-3; experiment: Downregulation of EMT signalling in human SK-OV-3 cells transfected with shFHL1-2 RNA assessed as N-cadherin protein expression at 10 uM by western blot analysis; assay type: functional, cell-based
[21] = tested on: A2780; experiment: Inhibition of cell migration in human A2780 cells transfected with shFHL1-1 RNA at 10 uM measured after 24 to 48 hrs by wound healing assay; assay type: functional, cell-based; conditions: time 24-48 hrs
[22] = tested on: A2780; experiment: Inhibition of cell migration in human A2780 cells transfected with shFHL1-2 RNA at 10 uM measured after 24 to 48 hrs by wound healing assay; assay type: functional, cell-based; conditions: time 24-48 hrs
[23] = tested on: SK-OV-3; experiment: Inhibition of cell migration in human SK-OV-3 cells transfected with shFHL1-2 RNA at 10 uM measured after 24 to 48 hrs by wound healing assay; assay type: functional, cell-based; conditions: time 24-48 hrs
[24] = tested on: A2780; experiment: Potentiation of olaparib sensitivity in human A2780 cells transfected with shFLH1-1 RNA assessed as downregulation of EMT signaling by measuring N-cadherin protein expression at 10 uM in presence of olaparib by western blot analysis; assay type: functional, cell-based
[25] = tested on: A2780; experiment: Potentiation of olaparib sensitivity in human A2780 cells transfected with shFLH1-2 RNA assessed as downregulation of EMT signaling by measuring E-cadherin protein expression at 10 uM in presence of olaparib by western blot analysis; assay type: functional, cell-based
[26] = tested on: A2780; experiment: Potentiation of olaparib sensitivity in human A2780 cells transfected with shFLH1-2 RNA assessed as downregulation of EMT signaling by measuring N-cadherin protein expression at 10 uM in presence of olaparib by western blot analysis; assay type: functional, cell-based
[27] = tested on: SK-OV-3; experiment: Potentiation of olaparib sensitivity in human SK-OV-3 cells transfected with shFHL1-1 RNA assessed as inhibition of cell migration at 10 uM measured after 24 to 48 hrs in presence of olaparib by wound healing assay; assay type: functional, cell-based; conditions: time 24-48 hrs
[28] = tested on: A2780; experiment: Potentiation of olaparib-induced antitumor activity against shNC RNA-transfected human A2780 cells xenografted in BALB/c mouse assessed as decrease in tumor volume at 15 mg/kg, ip co-administered with olaparib for 2 weeks; assay type: functional, organism-based
[29] = tested on: A2780; experiment: Potentiation of olaparib-induced antitumor activity against shFHL1-1 RNA-transfected human A2780 cells xenografted in BALB/c mouse assessed as decrease in tumor weight at 15 mg/kg, ip co-administered with olaparib for 2 weeks; assay type: functional, organism-based
[30] = tested on: Mus musculus; experiment: Potentiation of olaparib sensitivity in BALB/c mouse xenografted with shNC RNA-transfected human A2780 cells assessed as upregulation of E-cadherin protein expression in tumor at 15 mg/kg, ip co-administered with olaparib for 2 weeks by western blot analysis; assay type: functional, organism-based
[31] = tested on: Mus musculus; experiment: Potentiation of olaparib sensitivity in BALB/c mouse xenografted with shNC RNA-transfected human A2780 cells assessed as upregulation of FHL1 protein expression in tumor at 15 mg/kg, ip co-administered with olaparib for 2 weeks by western blot analysis; assay type: functional, organism-based
[32] = tested on: Mus musculus; experiment: Potentiation of olaparib sensitivity in BALB/c mouse xenografted with shFHL1-1 RNA-transfected human A2780 cells assessed as upregulation of FHL1 protein expression in tumor at 15 mg/kg, ip co-administered with olaparib for 2 weeks by western blot analysis; assay type: functional, organism-based
[33] = tested on: Mus musculus; experiment: Potentiation of olaparib sensitivity in BALB/c mouse xenografted with shFHL1-1 RNA-transfected human A2780 cells assessed as increase in FHL1 protein expression in tumor at 15 mg/kg, ip co-administered with olaparib for 2 weeks by immunohistochemistry; assay type: functional, organism-based

CC[C@]12C=CCN3CC[C@]4(C(=C(C(=O)OC)C1)Nc1ccccc14)[C@@H]32 [TABERSONINE]
Activity [1]: Active
Activity [2]: Active
Activity [3]: Non-Toxic
Activity [4]: Toxic
Activity [5]: Active
Activity [6]: Non-Toxic
inhibition [7]: Active
inhibition [8]: Active
inhibition [9]: Active
inhibition [10]: Active
Activity [11]: Active
Activity [12]: Active
Activity [13]: Active
Activity [14]: Active
inhibition [15]: Active
Activity [16]: Dose-Dependent Effect
inhibition [17]: inactive
inhibition [18]: inactive
inhibition [19]: inactive
inhibition [20]: inactive
inhibition [21]: inactive
inhibition [22]: inactive
inhibition [23]: inactive
Activity [24]: inactive
Activity [25]: inactive
Activity [26]: inactive
Activity [27]: inactive
Activity [28]: Active
Activity [29]: inactive
Activity [30]: Active
Activity [31]: Active
Activity [32]: inactive
Activity [33]: inactive
